pIC50: −log10 of the molar value. One block for each compound: values may come before it.
Experiments:
p38 MAP kinase = biological target: T1, p38 MAP kinase (Homo sapiens, UniProt Q16539); test: In vitro p38 MAP kinase inhibition assay (transfer of γ-phosphate from γ-33P-ATP to Myelin Basic Protein); format: biochemical; details: phosphorylated recombinant p38 MAP kinase, MBP substrate
T1 construct: made in house; host or cells: E. coli (co-expressed with SEK-1 and MEKK)
Method: This example illustrates a p38 (MAP) kinase in vitro assay useful for evaluating the compounds of the present invention.
The p38 MAP kinase inhibitory activity of compounds of this invention in vitro was determined by measuring the transfer of the γ-phosphate from γ-^33P-ATP by p38 kinase to Myelin Basic Protein (MBP), using a minor modification of the method described in Ahn, et al., J. Biol. Chem. 266:4220-4227 (1991).
The phosphorylated form of the recombinant p38 MAP kinase was co-expressed with SEK-1 and MEKK in E. Coli (see, Khokhlatchev, et al., J. Biol. Chem. 272:11057-11062 (1997)) and then purified by affinity chromatography using a Nickel column.
The phosphorylated p38 MAP kinase was diluted in kinase buffer (20 mM 3-(N-morpholino)propanesulfonic acid, pH 7.2, 25 mM β-glycerol phosphate, 5 mM ethylene glycol-bis(beta-aminoethyl ether)-N,N,N′,N′-tetraacetic acid, 1 mM sodium ortho-vanadate, 1 mM dithiothreitol, 40 mM magnesium chloride). Test compound dissolved in DMSO or only DMSO (control) was added and the samples were incubated for 10 minutes at 30° C. The kinase reaction was initiated by the addition of a substrate cocktail containing MBP and γ-^33P-ATP. After incubating for an additional 20 minutes at […], the reaction was terminated by adding 0.75% phosphoric acid. The phosphorylated MBP was then separated from the residual γ-^33P-ATP using a phosphocellulose membrane (Millipore, Bedfrod, Mass.) and quantitated using a scintillation counter (Packard, Meriden, Conn.).

T1 sequence (Q16539 whole entry): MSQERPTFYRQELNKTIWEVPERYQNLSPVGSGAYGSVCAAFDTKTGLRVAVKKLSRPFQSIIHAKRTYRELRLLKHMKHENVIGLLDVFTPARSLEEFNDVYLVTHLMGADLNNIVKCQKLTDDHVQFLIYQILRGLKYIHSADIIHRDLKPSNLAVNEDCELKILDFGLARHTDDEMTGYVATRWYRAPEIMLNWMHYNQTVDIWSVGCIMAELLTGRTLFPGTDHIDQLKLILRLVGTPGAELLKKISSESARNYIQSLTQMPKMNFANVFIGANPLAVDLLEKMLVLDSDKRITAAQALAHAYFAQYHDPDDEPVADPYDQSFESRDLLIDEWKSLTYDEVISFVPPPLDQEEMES

SMILES: CCOC(=O)N1CCC(Nc2ncc3c(n2)NC(=O)N(c2ccccc2Cl)C3)CC1 [Compound 2-28, 3-(2-chlorophenyl)-7-(1-ethoxycarbonylpiperidin-4-ylamino)-3,4-dihydropyrimido[4,5-d]pyrimidin-2(1H)-one]
pIC50 (p38 MAP kinase): > 5.00

SMILES: CN1C(=O)N(c2ccccc2Cl)Cc2cnc(NCC(C)(C)CN)nc21 [Compound 3-1]
melting point: 183 to 235 °C | pIC50 (p38 MAP kinase): > 5.00

The next lines start with the values.

melting point: 130 to 133.5 °C | pIC50 (p38 MAP kinase): > 5.00
SMILES: O=C1N(c2ccccc2Cl)Cc2cnc(N[C@H]3CC[C@H](O)CC3)nc2N1CC(F)(F)F [Compound 3-60, 3-(2-chlorophenyl)-7-(trans-4-hydroxycyclohexylamino)-1-(2,2,2-trifluoroethyl)-3,4-dihydropyrimido[4,5-d]pyrimidin-2(1H)-one]

pIC50 (p38 MAP kinase): > 5.00
SMILES: Cc1ccccc1N1Cc2cnc(NC(C)(C)CO)nc2N(C)C1=O [Compound 3-12]

pIC50 (p38 MAP kinase): > 5.00
SMILES: Cc1ccccc1N1Cc2cnc(NCC(C)(C)CN)nc2N(C)C1=O [Compound 3-3]

Source: patent US6451804B1, “Heteroalkylamino-substituted bicyclic nitrogen heterocycles” (Syntex (U.S.A.) LLC, priority 1999, dated 2002)
